Laboratory results taken from patent US20180155344A1, “TRICYCLIC PIPERIDINE COMPOUNDS” (ACTELION PHARMACEUTICALS LTD, priority 2015, published 2018).
Where two headings read alike, the source gives them in different places.

Biological target: T1, human TPH1 (Homo sapiens, UniProt P17752)
T1 sequence (P17752 1-444): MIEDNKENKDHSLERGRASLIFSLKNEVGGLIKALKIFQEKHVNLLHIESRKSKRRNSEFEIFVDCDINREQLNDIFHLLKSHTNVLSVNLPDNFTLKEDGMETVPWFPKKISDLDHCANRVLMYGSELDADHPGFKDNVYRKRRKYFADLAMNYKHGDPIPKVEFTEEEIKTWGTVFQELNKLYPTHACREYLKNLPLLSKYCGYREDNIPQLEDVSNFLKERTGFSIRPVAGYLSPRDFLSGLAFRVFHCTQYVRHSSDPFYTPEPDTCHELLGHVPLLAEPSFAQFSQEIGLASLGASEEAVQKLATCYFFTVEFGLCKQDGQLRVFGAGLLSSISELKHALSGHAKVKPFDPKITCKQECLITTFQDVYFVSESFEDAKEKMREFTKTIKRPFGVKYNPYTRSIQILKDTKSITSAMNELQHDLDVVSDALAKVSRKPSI
Test: biochemical
Source text: Biochemical In Vitro Assay Using Fluorescence Readout
To generate the enzyme, full length human TPH1 is cloned into the plasmid pET20b(+) (Novagen) and expressed in E. coli. The bacterial cells are ruptured by sonication on ice and the lysate is cleared by centrifugation. The resulting protein in the pellet is re-extracted and TPH1 is purified from the obtained lysate by affinity chromatography using a pterin cosubstrate analog immobilized to the resin of the column. The protein is further purified by size exclusion chromatography to remove protein aggregates. The activity of TPH1 is determined by using a fluorescence assay. The enzyme activity assay is carried out at 15° C. with atmosphere oxygen for the duration of 60 minutes in a volume of 64 μl. The reaction is carried out in a 0.1 M Tris-HCl buffer, adjusted to pH 7.6, containing 1 mM DTT, 0.2 mg/mL catalase, 100 μM (±)-6-methyl-5,6,7,8-tetrahydropterine dihydrochloride, 40 μM L-tryptophan, and 40-80 nM of TPH1. The reaction is started by bringing together L-tryptophan with all the other reaction substituents and stopped by quenching with perchloric acid (HClO4). The amount of 5-hydroxy-L-tryptophan produced during the enzymatic reaction is determined by fluorescence readout. Fluorescence, as determined at 540 nm when excited at 300 nm wavelength, increases proportionally to the 5-hydroxy-L-tryptophan formed. Compounds are prepared as 10 mM stock solution in DMSO, then diluted in 384-well plates using DMSO followed by a transfer of the dilutions into the assay plate. Fluorescence is measured for each well and the fluorescence at 540 nm wavelength is compared to the fluorescence of the vehicle in place of compound. […] The calculated IC50 values may fluctuate depending on the daily biochemical assay performance. Fluctuations of this kind are known to those skilled in the art.

[1] = Table 1, full length human TPH1, 40 μM L-tryptophan, 15° C., 60 minutes, mean if determined several times

Compound	IC50	other results
1-(1-(3,4-dimethoxyphenyl)-7-(trifluoromethyl)-3,4-dihydroimidazo[1,2-a:5,4-c′]dipyridin-2(1H)-yl)-2-(3-(trifluoromethyl)phenoxy)ethan-1-one [Example 3.1.10]	–	IC50 (Table 3, inhibitory activity on tryptophan hydroxylase 1): 251 nM
1-(1-(4-(aminomethyl)phenyl)-7-(trifluoromethyl)-3,4-dihydroimidazo[1,2-a:5,4-c′]dipyridin-2(1H)-yl)-2-(2-chloro-4-(morpholinomethyl)phenoxy)ethan-1-one [Example 3.31.2]	–	IC50 [1]: 145 nM
1-(1-(4-(aminomethyl)phenyl)-7-(trifluoromethyl)-3,4-dihydroimidazo[1,2-a:5,4-c′]dipyridin-2(1H)-yl)-2-(naphthalen-2-yloxy)ethan-1-one [Example 3.31.1]	–	IC50 [1]: 73 nM
2-((6-(aminomethyl)-2-chloropyridin-3-yl)oxy)-1-(9-(5-cyclopropyl-3-fluoropyridin-2-yl)-6,9-dihydropyrido[4′,3′:4,5]imidazo[1,2-b]pyridazin-8(7H)-yl)ethan-1-one [Example 16.2.4]	–	IC50 [1]: 401 nM
COc1ccc(C2c3c(nc4ccccn34)CCN2C(=O)COc2ccc(Cl)cc2Cl)cc1OC (centres unmarked) [Example 1.1.4, 2-(2,4-dichlorophenoxy)-1-(1-(3,4-dimethoxyphenyl)-3,4-dihydroimidazo[1,2-a:5,4-c′]dipyridin-2(1H)-yl)ethan-1-one]	69 nM	–
COc1ccc(C2c3c(nc4ccccn34)CCN2C(=O)COc2ccc3ccccc3c2)cc1OC (centres unmarked) [Example 1.1.5, 1-(1-(3,4-dimethoxyphenyl)-3,4-dihydroimidazo[1,2-a:5,4-c′]dipyridin-2(1H)-yl)-2-(naphthalen-2-yloxy)ethan-1-one]	24 nM	–
COc1ccc(C2c3c(nc4ccccn34)CCN2C(=O)COc2ccc3ccccc3c2C)cc1OC (centres unmarked) [Example 1.1.6, 1-(1-(3,4-dimethoxyphenyl)-3,4-dihydroimidazo[1,2-a:5,4-c′]dipyridin-2(1H)-yl)-2-((1-methylnaphthalen-2-yl)oxy)ethan-1-one]	12 nM	–
CCc1cc(C)c(C(N)=O)cc1OCC(=O)N1CCc2nc3ccccn3c2C1c1ccc(OC)c(OC)c1 (centres unmarked) [Example 1.1.11, 5-(2-(1-(3,4-dimethoxyphenyl)-3,4-dihydroimidazo[1,2-a:5,4-c′]dipyridin-2(1H)-yl)-2-oxoethoxy)-4-ethyl-2-methylbenzamide]	248 nM	–
O=C(COc1ccc(CN2CCOCC2)cc1Cl)N1CCc2nc3ccccn3c2C1c1cccnc1F (centres unmarked) [Example 1.2.1, 2-(2-chloro-4-(morpholinomethyl)phenoxy)-1-(1-(2-fluoropyridin-3-yl)-3,4-dihydroimidazo[1,2-a:5,4-c′]dipyridin-2(1H)-yl)ethan-1-one]	209 nM	–
CCc1ncccc1OCC(=O)N1CCc2nc3ccccn3c2C1c1ccc(Cl)cc1F (centres unmarked) [Example 1.4.2, 1-(1-(4-chloro-2-fluorophenyl)-3,4-dihydroimidazo[1,2-a:5,4-c′]dipyridin-2(1H)-yl)-2-((2-ethylpyridin-3-yl)oxy)ethan-1-one]	55 nM	–
O=C(COc1ccc(CN2CCOCC2)nc1Cl)N1CCc2nc3ccccn3c2C1c1ccc(Cl)cc1F (centres unmarked) [Example 1.4.4, 1-(1-(4-chloro-2-fluorophenyl)-3,4-dihydroimidazo[1,2-a:5,4-c′]dipyridin-2(1H)-yl)-2-((2-chloro-6-(morpholinomethyl)pyridin-3-yl)oxy)ethan-1-one]	90 nM	–

More lines, main results first:

IC50	Compound	other results
418 nM	COc1ccc(C2c3c(nc4ccccn34)CCN2C(=O)COc2cc(C)ccc2C)cc1OC (centres unmarked) [Example 1.1.1, 1-(1-(3,4-dimethoxyphenyl)-3,4-dihydroimidazo[1,2-a:5,4-c′]dipyridin-2(1H)-yl)-2-(2,5-dimethylphenoxy)ethan-1-one]	–
180 nM	COc1ccc(C2c3c(nc4ccccn34)CCN2C(=O)COc2ccc(C)cc2C)cc1OC (centres unmarked) [Example 1.1.2, 1-(1-(3,4-dimethoxyphenyl)-3,4-dihydroimidazo[1,2-a:5,4-c′]dipyridin-2(1H)-yl)-2-(2,4-dimethylphenoxy)ethan-1-one]	–
134 nM	COc1ccc(C2c3c(nc4ccccn34)CCN2C(=O)COc2cccc3ccccc23)cc1OC (centres unmarked) [Example 1.1.3, 1-(1-(3,4-dimethoxyphenyl)-3,4-dihydroimidazo[1,2-a:5,4-c′]dipyridin-2(1H)-yl)-2-(naphthalen-1-yloxy)ethan-1-one]	–
4 nM	CCc1c(OCC(=O)N2CCc3nc4ccccn4c3C2c2ccc(OC)c(OC)c2)ccc2ccccc12 (centres unmarked) [Example 1.1.7, 1-(1-(3,4-dimethoxyphenyl)-3,4-dihydroimidazo[1,2-a:5,4-c′]dipyridin-2(1H)-yl)-2-((1-ethylnaphthalen-2-yl)oxy)ethan-1-one]	–
9 nM	COc1ccc(C2c3c(nc4ccccn34)CCN2C(=O)COc2ccc3ccccc3c2Br)cc1OC (centres unmarked) [Example 1.1.8, 2-((1-bromonaphthalen-2-yl)oxy)-1-(1-(3,4-dimethoxyphenyl)-3,4-dihydroimidazo[1,2-a:5,4-c′]dipyridin-2(1H)-yl)ethan-1-one]	–
8 nM	COc1ccc(C2c3c(nc4ccccn34)CCN2C(=O)COc2ccc3ccccc3c2Cl)cc1OC (centres unmarked) [Example 1.1.9, 2-((1-chloronaphthalen-2-yl)oxy)-1-(1-(3,4-dimethoxyphenyl)-3,4-dihydroimidazo[1,2-a:5,4-c′]dipyridin-2(1H)-yl)ethan-1-one]	–
92 nM	CCOC(=O)c1cc(OCC(=O)N2CCc3nc4ccccn4c3C2c2ccc(OC)c(OC)c2)c(CC)cc1C (centres unmarked) [Example 1.1.10, ethyl 5-(2-(1-(3,4-dimethoxyphenyl)-3,4-dihydroimidazo[1,2-a:5,4-c′]dipyridin-2(1H)-yl)-2-oxoethoxy)4-ethyl-2-methylbenzoate]	–
141 nM	CCc1cc(C)c(C(=O)NC)cc1OCC(=O)N1CCc2nc3ccccn3c2C1c1ccc(OC)c(OC)c1 (centres unmarked) [Example 1.1.12, 5-(2-(1-(3,4-dimethoxyphenyl)-3,4-dihydroimidazo[1,2-a:5,4-c′]dipyridin-2(1H)-yl)-2-oxoethoxy)-4-ethyl-N,2-dimethylbenzamide]	–
84 nM	COc1ccc(C2c3c(nc4ccccn34)CCN2C(=O)COc2ccc(CN3CCOCC3)nc2Cl)c(F)c1 (centres unmarked) [Example 1.3.1, 2-((2-chloro-6-(morpholinomethyl)pyridin-3-yl)oxy)-1-(1-(2-fluoro-4-methoxyphenyl)-3,4-dihydroimidazo[1,2-a:5,4-c′]dipyridin-2(1H)-yl)ethan-1-one]	–
40 nM	COc1ccc(C2c3c(nc4ccccn34)CCN2C(=O)COc2ccc(NS(C)(=O)=O)nc2Cl)c(F)c1 (centres unmarked) [Example 1.3.2, N-(6-chloro-5-(2-(1-(2-fluoro-4-methoxyphenyl)-3,4-dihydroimidazo[1,2-a:5,4-c′]dipyridin-2(1H)-yl)-2-oxoethoxy)pyridin-2-yl)methanesulfonamide]	–
19 nM	COc1ccc(C2c3c(nc4ccccn34)CCN2C(=O)COc2ccc(C(=O)NC3CC3)nc2Cl)c(F)c1 (centres unmarked) [Example 1.3.3, 6-chloro-N-cyclopropyl-5-(2-(1-(2-fluoro-4-methoxyphenyl)-3,4-dihydroimidazo[1,2-a:5,4-c′]dipyridin-2(1H)-yl)-2-oxoethoxy)picolinamide]	–
18 nM	Cc1cc(Cl)ccc1OCC(=O)N1CCc2nc3ccccn3c2C1c1ccc(Cl)cc1F (centres unmarked) [Example 1.4.1, 1-(1-(4-chloro-2-fluorophenyl)-3,4-dihydroimidazo[1,2-a:5,4-c′]dipyridin-2(1H)-yl)-2-(4-chloro-2-methylphenoxy)ethan-1-one]	–
271 nM	O=C(COc1cccnc1Cl)N1CCc2nc3ccccn3c2C1c1ccc(Cl)cc1F (centres unmarked) [Example 1.4.3, 1-(1-(4-chloro-2-fluorophenyl)-3,4-dihydroimidazo[1,2-a:5,4-c′]dipyridin-2(1H)-yl)-2-((2-chloropyridin-3-yl)oxy)ethan-1-one]	–
5 nM	O=C(COc1ccc(N2CCOCC2)nc1Cl)N1CCc2nc3ccccn3c2C1c1ccc(Cl)cc1F (centres unmarked) [Example 1.4.5, 1-(1-(4-chloro-2-fluorophenyl)-3,4-dihydroimidazo[1,2-a:5,4-c′]dipyridin-2(1H)-yl)-2-((2-chloro-6-morpholinopyridin-3-yl)oxy)ethan-1-one]	–
78 nM	CCc1nc(C)ccc1OCC(=O)N1CCc2nc3ccccn3c2C1c1ccc(Cl)cc1F (centres unmarked) [Example 1.4.6, 1-(1-(4-chloro-2-fluorophenyl)-3,4-dihydroimidazo[1,2-a:5,4-c′]dipyridin-2(1H)-yl)-2-((2-ethyl-6-methylpyridin-3-yl)oxy)ethan-1-one]	–
